Tests used:
recombinant human CYP2D6 = recombinant human CYP2D6 (Homo sapiens, UniProt P10635); test: Inhibition of poziotinib metabolism; assay type: in vitro ADME; details: CYP2D6, stated in abstract
[1] = healthy volunteers, coadministered with paroxetine; ref Ruiz-Garcia et al. [2014]; cited from earlier work
recombinant human CYP3A4 = recombinant human CYP3A4 (Homo sapiens, UniProt P08684); test: Inhibition of poziotinib metabolism; assay type: in vitro ADME; details: CYP3A4, stated in abstract
HLM = test: Inhibition of poziotinib metabolism; assay type: in vitro ADME, human
RLM = test: Inhibition of poziotinib metabolism; assay type: in vitro ADME, rat
[2] = dogs, oral dose of 0.3 mg/kg poziotinib; ref Kim et al. [2013]; cited from earlier work
[3] = patients, combined with paclitaxel and trastuzumab; ref Kim TY et al. [2019]; cited from earlier work
[4] = assay type: in vivo, Sprague–Dawley rats
[5] = rat, preadministered with dacomitinib (10 mg/kg) for two weeks

recombinant human CYP2D6, sequence (P10635 whole entry): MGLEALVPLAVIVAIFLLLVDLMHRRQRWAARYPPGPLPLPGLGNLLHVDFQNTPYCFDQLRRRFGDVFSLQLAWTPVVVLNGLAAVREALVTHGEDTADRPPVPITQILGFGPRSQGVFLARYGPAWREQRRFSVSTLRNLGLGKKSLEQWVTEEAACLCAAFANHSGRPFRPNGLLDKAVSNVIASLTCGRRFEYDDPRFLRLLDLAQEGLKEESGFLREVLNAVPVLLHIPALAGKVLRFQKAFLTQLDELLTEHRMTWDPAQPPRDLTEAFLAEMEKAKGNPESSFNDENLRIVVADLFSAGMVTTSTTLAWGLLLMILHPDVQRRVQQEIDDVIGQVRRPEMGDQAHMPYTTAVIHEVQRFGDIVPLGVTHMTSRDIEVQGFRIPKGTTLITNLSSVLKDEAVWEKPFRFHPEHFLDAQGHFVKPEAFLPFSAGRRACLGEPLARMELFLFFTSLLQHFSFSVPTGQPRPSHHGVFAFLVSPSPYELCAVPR
recombinant human CYP3A4, sequence (P08684 whole entry): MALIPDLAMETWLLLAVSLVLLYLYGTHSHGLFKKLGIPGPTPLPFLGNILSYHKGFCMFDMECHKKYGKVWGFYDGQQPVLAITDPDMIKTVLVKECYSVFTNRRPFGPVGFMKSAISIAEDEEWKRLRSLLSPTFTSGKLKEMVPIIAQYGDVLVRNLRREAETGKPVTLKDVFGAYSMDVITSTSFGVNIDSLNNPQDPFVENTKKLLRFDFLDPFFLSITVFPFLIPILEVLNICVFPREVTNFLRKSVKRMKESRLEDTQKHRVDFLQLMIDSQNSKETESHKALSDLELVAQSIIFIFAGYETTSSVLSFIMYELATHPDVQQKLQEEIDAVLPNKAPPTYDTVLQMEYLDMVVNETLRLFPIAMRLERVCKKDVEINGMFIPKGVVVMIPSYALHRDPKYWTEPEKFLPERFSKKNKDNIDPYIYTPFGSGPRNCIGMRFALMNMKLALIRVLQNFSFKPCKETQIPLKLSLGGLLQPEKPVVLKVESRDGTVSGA

## COc1cc2ncnc(Nc3ccc(F)c(Cl)c3)c2cc1NC(=O)/C=C/CN1CCCCC1 [dacomitinib, Dacomitinib]
Recombinant human CYP2D6
  mechanism of inhibition of poziotinib metabolism: mixed way
[1]
  increase of dacomitinib exposure: 37%
Recombinant human CYP3A4
  mechanism of inhibition of poziotinib metabolism: mixed way
HLM
  mechanism of inhibition of poziotinib metabolism: mixed inhibitor
HLM; M1
  Ki: 83.7 µM
  αKi: 93.73 µM
HLM; M1, Lineweaver–Burk plot
  Inhibition type: Mixed
HLM; M2
  Ki: 0.17 µM
HLM; M2, Lineweaver–Burk plot
  Inhibition type: Mixed
RLM
  mechanism of inhibition of poziotinib metabolism: mixed inhibitor
RLM; M1
  Ki: 8.18 µM
  αKi: 38.81 µM
RLM; M1, Lineweaver–Burk plot
  Inhibition type: Mixed
RLM; M2
  Ki: 47.5 µM
  αKi: 38.07 µM
RLM; M2, Lineweaver–Burk plot
  Inhibition type: Mixed

## C=CC(=O)N1CCC(Oc2cc3c(Nc4ccc(Cl)c(Cl)c4F)ncnc3cc2OC)CC1 [poziotinib, Poziotinib]
[2]
  Tmax: 0.40 to 1.00 h
  t1/2: 3.40 to 5.40 h
[3]
  maximum tolerated dose (MTD): 8 mg/day
[4]; rat
  delay of Tmax of poziotinib after pre-treatment with dacomitinib: ~3 h
[4]; rat, dacomitinib pre-treatment two weeks, p < 0.01
  increase of AUC(0–t) of poziotinib, test group vs control group: 1.6 fold
[4]; [5]
  increase of Tmax of poziotinib, test group vs control group: 1.3 fold
  increase of t1/2 of poziotinib, test group vs control group: 1.6 fold
[4]; rats, poziotinib 10 mg/kg oral with or without dacomitinib
  adverse effects observed: No obvious adverse effects were observed
